# Laboratory results from patent publication US5591615A, “Mutant of Geotrichum candidum which produces novel enzyme system to selectively hydrolyze triglycerides” (priority 1995, dated 1997).
# Experiments:
# UNLipase [1] = assay: Hydrolysis of pure triglycerides with UNLipase; format: biochemical, Geotrichum candidum; conditions: 1 hour at 37 degrees C; for ratio of hydrolysis for triolein:tripalmitolein:trilinolein: pure triglyceride in isooctane, relative to triolein 100
# Method: The Enzyme was harvested using centrifugation at 5000 rpms, for example, in a Beckman GSA rotor for 10 minutes. This cell-free preparation was used to determine hydrolysis, esterification and transesterification properties.
# Substrates were prepared in isooctane (2,2,4-trimethylpentane) at about 0.8 grams per 20 ml solvent. Assay procedures for determining lipase activity were those described by Kwon, D. Y. and Rhee, J. S., J. Amer. Oil Chem Soc. 63:89-92(1986). One modification was to perform some assays for one hour under nonagitated conditions to avoid difficulties in reproducing agitation rates.
# Hydrolysis was greatest for triolein, with the ratio of hydrolysis for triolein: tripalmitolein:trilinolein of 100:65:82. […] The ratio of hydrolysis of triolein to tripalmitin was approximately 33:1.
# [2] = tested on: Geotrichum candidum mutant 9-2; assay: UNLipase production by mutant in culture medium; format: cell-based
# Method: It was determined early in our work that having fat or oil in the medium induced other lipases produced by Geotrichum strains. Thus fat or oil was eliminated from the medium. Then improvements for Bacto-Peptone were sought. A series of peptones or other organic nitrogen sources were tested including soy peptone, trypticase® (BBL) peptone, casamino acids, NZ amine® (Sheffield Products) and casein.
# Next, the salt constituents were examined in the standard medium. […] The inclusion of these two salts in the medium gave a doubling of measured hydrolyric activity when assayed using the standard assay. […] Fifty mls of this medium are placed in 500 ml baffled flasks (Bellco) then shaken at 250 rpms at 25°-30° C.
# The next goal was to find a mutant with enhanced productivity. Thus the mutagenesis of mutant 9-2 was undertaken as described above but the selection protocol was altered. In this case, after the 8° C. recovery period the mutant suspensions were placed in 50 ml sterile test tubes and frozen at -55° C. The period of freezing was then interrupted by thawing periods (about 4 hours) and followed by freezing at -55° C. Mutants were screened for lipase activity and selectivity. One mutant, 9-2-3-9, survived a cycle of 3 weeks of freezing which had been interrupted by 3 thaw cycles. The mutant 9-2-3-9 was distinctly different from its parent (9-2) in its colony morphology when grown on nutrient agar. The colony type was much more aerial than 9-2.
# The mutant 9-2 was grown in the medium described above. Fifty mls were added to 500 ml baffled flasks (Bellco) and placed on a shaker maintained at 30° C. and shaken at 250 rpms. Production reaches a peak at about 30 hours, then declines slightly and remains low. The enzyme was harvested at 30 hours for a series of hydrolyric tests. The collection of the enzyme involves centrifugation of the broth at 5000 rpms in the Beckman GSA rotor for 10 minutes. The cell free broth was then decanted from the cell pellet. In some cases, high activity suspension were produced by a 70% ammonium sulfate precipitation of the broth.
# UNLipase [3] = assay: Esterification of fatty acid mixture from pressure-split beef tallow (PFA); format: biochemical, Geotrichum candidum; conditions: HPLC or GC; pentadecanoic acid internal standard
# Method: The esterification of fatty acid mixtures was evaluated using typical fatty acid mixtures derived from pressure-split beef tallow, henceforth referred to as PFA. Samples of PFA were spiked with pentadecanoic acid as an internal standard. The resulting products were analyses by either HPLC (reverse phase C-18 column) or GC (FFAP capillary column).
# UNLipase [4] = assay: Hydrolysis of simple (methyl) esters with UNLipase; format: biochemical, Geotrichum candidum; conditions: about 50 mM in isooctane, 37 degrees C, 4 hours
# Excerpt: Simple esters were subjected to UNLipase to determine the scope and extent of UNLipase selectivity. The esters evaluated were methyl esters of propionic, caprylic, nonanoic, caproic, palmitic and oleic acids. […] Approximately 2% of the methyl palmitate reacted, whereas 67% of the methyl oleate was hydrolyzed.
# UNLipase [5] = assay: Effect of metal ions on UNLipase; format: biochemical, Geotrichum candidum; conditions: 25 mM concentration
# UNLipase [6] = assay: Fatty acid selectivity of lipase esterification; format: biochemical, Geotrichum candidum
# Method: These preparations contained 50-200 mg of fatty acid, 0.5 ml concentrated broth, 0.5 ml water (buffer) and 100-300 ul of alcohol. Reactions were run at either 27, 30 or 37 degrees Celsius for 16 to 24 hours. The reaction was stopped by adding 2.0 ml ether.
# Fatty acid and ester were extracted into ether and evaluated by thin layer chromatography. The esterification of oleic acid with various alcohols is present in Table 1.
# The fatty acid selectivity of the lipase in esterification reactions was also evaluated in the manner described above, with results analyzed by thin layer chromatography, GC, HPLC and IR.
# G. candidum lipase = conditions: cited from earlier work
# [7] = added to culture medium of mutant 9-2
structure (smiles),measurement,setting,value
CCCCCCCCCCCCCCCC(=O)OCC(COC(=O)CCCCCCCCCCCCCCC)OC(=O)CCCCCCCCCCCCCCC [tripalmitin],reactivity with UNLipase,UNLipase [1]; saturated fatty acid triglycerides,showed any reactivity
OC[C@H]1O[C@H](O[C@H]2[C@H](O)[C@@H](O)C(O)O[C@@H]2CO)[C@H](O)[C@@H](O)[C@@H]1O (mixture of isomers) [maltose],effect on UNLipase production,[2]; [7],no effect
CCCCC/C=C\C/C=C\CCCCCCCC(=O)O [Linoleic],ester formation in PFA mixture,UNLipase [3],detected
OC[C@H]1O[C@@](CO)(O[C@H]2O[C@H](CO)[C@@H](O)[C@H](O)[C@H]2O)[C@@H](O)[C@@H]1O [sucrose],effect on UNLipase production,[2]; [7],inhibited
CCCCCCCCC(=O)OC [methyl ester of nonanoic acid],hydrolysis by UNLipase,UNLipase [4],not hydrolyzed
CCCCCCCC/C=C\CCCCCCCC(=O)OCC(COC(=O)CCCCCCC/C=C\CCCCCCCC)OC(=O)CCCCCCC/C=C\CCCCCCCC [triolein],ratio of hydrolysis for triolein:tripalmitolein:trilinolein,UNLipase [1],100
O=C[C@H](O)[C@@H](O)[C@H](O)[C@H](O)CO [glucose],effect on UNLipase production,[2]; [7],inhibited
O=C(CO)[C@@H](O)[C@H](O)[C@H](O)CO [fructose],effect on UNLipase production,[2]; [7],inhibited
CCCCC/C=C\C/C=C\CCCCCCCC(=O)OCC(COC(=O)CCCCCCC/C=C\C/C=C\CCCCC)OC(=O)CCCCCCC/C=C\C/C=C\CCCCC [trilinolein],ratio of hydrolysis for triolein:tripalmitolein:trilinolein,UNLipase [1],82
[Ca+2] [calcium ions],effect on UNLipase,UNLipase [5],inhibited
same,effect on UNLipase production,[2]; [7],did not enhance
CCCCCCCCCCCCCCCC(=O)O [palmitic],ester formation in PFA mixture,UNLipase [3],not esterified
[Mg+2] [magnesium ions],effect on UNLipase,UNLipase [5],activated
"C=CCCCCCCCCC(=O)O [Undecenoic acid, 10-undecenoic acid]",effect on esterification of oleic acid,UNLipase [6],inhibitor
O=S(=O)([O-])[O-].[Mg+2] [MgSO4],effect on UNLipase production,[2]; MgSO4 concentration increased to 0.5%,no further enhancement
same,effect on UNLipase production,[2]; [7],benefit
OC[C@@H](O)[C@@H](O)[C@H](O)[C@H](O)CO [mannitol],effect on UNLipase production,[2]; [7],no effect
CCCCCCCCCCCCCCCCCC(=O)O [Stearic],ester formation in PFA mixture,UNLipase [3],not esterified
CCCCCCCCCCCCCC(=O)O [myristic],ester formation in PFA mixture,UNLipase [3],not esterified
CCCCCCCCCCCCCCC(=O)O [pentadecanoic acid],ester formation in PFA mixture,UNLipase [3],not esterified
CCCCCC/C=C\CCCCCCCC(=O)O [Palmitoleic],ester formation in PFA mixture,UNLipase [3],detected
CCCCCCCC/C=C\CCCCCCCC(=O)OC [methyl oleate],methyl ester hydrolyzed,UNLipase [4],67%
same,hydrolytic rate relative to palmitic methyl ester,G. candidum lipase,10 times
"CCCCCCCC/C=C\CCCCCCCC(=O)O [Oleic, oleic acid]",ester formation in PFA mixture,UNLipase [3],detected
O=P([O-])(O)O.[K+] [KH2 PO4],effect on UNLipase production,[2]; [7],benefit
CCCCCCCCCCCCCCCC(=O)OC [methyl palmitate],methyl ester hydrolyzed,UNLipase [4],Approximately 2%
CCCCCC/C=C\CCCCCCCC(=O)OCC(COC(=O)CCCCCCC/C=C\CCCCCC)OC(=O)CCCCCCC/C=C\CCCCCC [tripalmitolein],ratio of hydrolysis for triolein:tripalmitolein:trilinolein,UNLipase [1],65
CCC(=O)OC [methyl ester of propionic acid],hydrolysis by UNLipase,UNLipase [4],not hydrolyzed
CCCCCCCC(=O)OC [methyl ester of caprylic acid],hydrolysis by UNLipase,UNLipase [4],not hydrolyzed
